Results published in US20090298934A1, “Diamidine Inhibitors of TDP1” (GOVERNMENT OF THE US, AS REPRESENTED BY THE SECRET, priority 2006, published 2009).

Legend:
Tdp1 [1] = biological target: T1, Tdp1 (Homo sapiens, UniProt Q9NUW8); test: Tdp1 gel assay (32P-labeled 14Y / D14Y / 14Y-CC substrates, denaturing PAGE, densitometry); assay type: biochemical; conditions: for Ability to inhibit Tdp1 activity in the 14Y substrate (gel): 25 nM 14Y, 1 ng Tdp1, 20 min, pH 8.0, 25° C.; for Conversion half-time (t) of 14Y: 1.9 min in the absence of drug
T1 construct: His tag with thrombin site and linker (printed […] = X1; made in house; host or cells: E. coli BL21 (Novagen), plasmid pHN1910 in vector pET 15b
T1 sequence (Q9NUW8 whole entry): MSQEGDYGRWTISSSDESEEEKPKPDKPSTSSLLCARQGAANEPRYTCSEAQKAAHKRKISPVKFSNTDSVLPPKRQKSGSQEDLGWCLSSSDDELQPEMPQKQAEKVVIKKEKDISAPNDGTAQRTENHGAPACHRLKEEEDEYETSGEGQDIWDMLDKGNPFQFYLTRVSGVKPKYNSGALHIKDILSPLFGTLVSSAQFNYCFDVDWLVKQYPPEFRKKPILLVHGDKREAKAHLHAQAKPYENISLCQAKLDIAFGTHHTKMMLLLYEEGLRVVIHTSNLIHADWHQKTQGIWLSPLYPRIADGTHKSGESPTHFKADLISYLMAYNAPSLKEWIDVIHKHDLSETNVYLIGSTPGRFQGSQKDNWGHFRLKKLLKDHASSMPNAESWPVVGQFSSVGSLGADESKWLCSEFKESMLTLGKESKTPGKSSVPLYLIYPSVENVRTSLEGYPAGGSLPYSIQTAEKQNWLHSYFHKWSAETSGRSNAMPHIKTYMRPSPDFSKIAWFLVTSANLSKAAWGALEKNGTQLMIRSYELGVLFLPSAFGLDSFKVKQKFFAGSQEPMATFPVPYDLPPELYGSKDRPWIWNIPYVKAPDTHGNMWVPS
Description: FIG. 7. […] A, Schematic representation of the Tdp1 biochemical assay. The partially duplex […] D14Y or single stranded 14Y was used as a substrate. ^32P-Radiolabeling (*) was at the 5′ terminus of the 14-mer strand. Tdp1 catalyzes the hydrolysis of the 3′-phosphotyrosine bond and converts 14Y and D14Y to an oligonucleotide with 3′-phosphate, 14P or D14P respectively. […] Arrows indicate the 3′-phosphate oligonucleotide product (14P) that runs quicker than the corresponding tyrosyl oligonucleotide substrate (14Y) in a denaturing PAGE. The duplex D14Y substrate and D14P product are detected on the gel by their corresponding labeled single strands (14Y and 14P), as they are no longer annealed under the denatured conditions.
FIG. 9. […] Aliquots were taken at the indicated times (min). Reaction products were analyzed by denaturing PAGE. B, densitometry analysis of the gel shown in A. Tdp1 activity measured as the percentage of DNA substrate 14Y converted to 14P (Left panel) or substrate 14Y remaining (Right panel) as a function of reaction time. […] A representative gel is shown. D, densitometry analysis of the gel shown in C. Tdp1 activity was calculated as the percentage of DNA substrate 14Y converted to 14P.
FIG. 10. […] A, Sequences of the oligonucletotide substrates 14Y and 14Y-CC, which differ in their 3′-terminal bases being a -TT or a -CC that is linked to the phosphotyrosine. B, Reactions (100 μl) containing either 25 nM 14Y or 14Y-CC and 5 ng of Tdp1 was incubated at pH 8.0 at 25° C. Aliquots were taken at the indicated times (min). Reaction products were analyzed by denaturing PAGE. C, densitometry analysis of the gel shown in B. Tdp1 activity measured as the percentage of DNA substrates 14Y or 14Y-CC converted to their corresponding products as a function of reaction time. […] A representative gel is shown. E, densitometry analysis of the gel shown in D. Tdp1 activity was calculated as the percentage of DNA substrates 14Y or 14Y-CC converted to their product.
FIG. 11. […] R; common chemical moiety. […] Samples were separated on a 20% Urea-PAGE gel and visualized.
Preparation of Tdp1 substrates: HPLC purified oligonucleotides N14Y (Plo et al., (2003) DNA Repair (Amst) 2(10):1087-1100) were labeled at their 5′-end with [γ-^32P]-ATP (Perkin-Elmer Life Science Co., Boston, Mass.) by incubation with 3′-phosphatase free T4 polynucleotide kinase (Roche applied Science, Indianapolis, Ind.) according to the manufacturer's protocols. Unincorporated nucleotides were removed by Sephadex G-25 spin-column chromatography (Mini Quick Spin Oligo Columns, Roche, Indianapolis, Ind.). For the production of the oligonucleotide duplexes D14Y, N14Y was mixed with the complementary oligonucleotide in equal molar ratios in annealing buffer (10 mM Tris-HCl pH 7.5, 100 mM NaCl, 10 mM MgCl2), heated to 96° C., and allowed to cool down slowly (over 2 h) to room temperature. Tdp1 assays: Unless indicated otherwise, Tdp1 assays are performed in 20 μl mixtures containing 50 mM Tris-HCl, pH 8.0, 80 mM KCl, 2 mM EDTA, 1 mM dithiothreitol (D)T, and 40 μg/ml bovine serum albumin (BSA). For initial screening of Tdp1 inhibitors, 25 nM of 5′-^32P-labeled substrate (D14Y) is reacted with 1 ng Tdp1 (≈0.7 nM) in the absence or presence of inhibitor for 20 min at 25° C. Reactions are stopped by addition of 60 μl of gel loading buffer (98% (v/v) formamide, 1% (w/v) xylene cyanol, 1% (w/v) bromophenol blue). Twelve μl of aliquots are resolved in 20% denaturing polyacrylamide (AccuGel, National Diagnostics, Atlanta, Ga.) (19:1) gel containing 7 M urea. After drying, gels are exposed overnight to PhosphorImager screens (Molecular Dynamics, Sunnyvale, Calif.). Screens are scanned, and images are obtained with the Molecular Dynamics software (Sunnyvale, Calif.). Densitometry analyses are performed using ImageQuant 5.2 software package (Amersham Biosciences, Piscataway, N.J.).

Tdp1 [2] = biological target: T1, Tdp1; test: High-throughput electrochemiluminescent (ECL) Tdp1 assay; assay type: biochemical
Description: High-throughput electrochemiluminescene assay developed to identify novel Tdp1 inhibitors. […] This leads to a loss of the chemiluminescence signal. Positive hits for potential Tdp1 inhibitors prevent this loss of signal. C, Signal response curve in the presence of increasing concentrations (nM) of Tdp1.
A, Graph representing the effect of 1981 compounds in the NCI-DTP diversity set on Tdp1 activity at 10 pM. Each dot indicates a signal value for a tested sample. The substrate chemiluminescence (Arbitrary units; A.U.) in the absence of Tdp1 averages at 16313±1084 (n=200; where “n” indicates the number of samples). In the presence of Tdp1 the loss of signal averages at 8784±559 (n=100). The effect of 1981 compounds screened is represented. Positive Tdp1 inhibitors prevent the loss of signal. […] Vanadate at 10 mM was used for comparison.

Row | SMILES | Ability to inhibit Tdp1 activity in the 14Y substrate (gel) (Tdp1 [1]) | IC50 (Tdp1 [1]; IC50 ds14Y, double-stranded 14Y substrate) | IC50 (Tdp1 [1]; IC50 ss14Y, single-stranded 14Y substrate) | inhibition at 30 µM (Tdp1 [1]; 30 μM compound, 0.1 ng of Tdp1, 14Y) | Inhibition of Tdp1 activity after increasing Tdp1 (Tdp1 [1]; 30 μM compound, Tdp1 increased to 1 ng, 14Y) | Conversion half-time (t) of 14Y (Tdp1 [1]; 30 μM compound) | Conversion half-time (t) of 14Y (Tdp1 [1]; 60 μM compound) | Type of Tdp1 inhibition (Tdp1 [1]; dependence on reaction time and Tdp1 concentration) | ECL signal value (substrate chemiluminescence) (Tdp1 [2]; 10 μM compound, without Tdp1 16313±1084, with Tdp1 8784±559) | inhibition at 10 µM (Tdp1 [2]; at 10 μM)
1 | CC(=O)NCC(=O)O.CC(=O)NCC(=O)O.N=C(N)c1ccc(N=NNc2ccc(C(=N)N)cc2)cc1 [Berenil, reference compound] | some activity, albeit at a high concentration (300 μM) | – | – | – | – | – | – | – | – | –
2 | CN(C)C1C(O)=C(C(=O)NCN2CCN(C(=N)NC(=N)N)CC2)C(=O)C2(O)C(O)=C3C(=O)c4c(O)cccc4C(C)(O)C3CC12 (centres unmarked) [Compound (a)] | – | 19 µM | 12 µM | – | – | – | – | – | – | –
3 | N=C(N)c1ccc(-c2ccc(-c3ccc(C(=N)N)cc3)o2)cc1 [Compound (b), 2,5-di-(4-phenylamidine)furan] | exhibits an inhibition of Tdp1 activity at 30 μM | – | – | 50% | almost completely reversed | 2.7 min | 4.4 min | reversible inhibition | 16910 A.U. | 100%
